Experiments:
H. pylori = assay: Formation of carboxylic acid from aliphatic amide in H. pylori enriched liquid culture, SPME of vapor phase and GC-MS (SIM); format: cell-based, Helicobacter pylori; conditions: for formation of the respective acid in the vapor phase: amide added to medium containing H. pylori (collection cultures and clinical isolates), GC-MS
Description: In vitro ex vivo experimental tests were carried out in H. pylori cultures from collections and clinical isolates. […] The experimental tests were performed in vitro ex vivo in H. pylori cultures from collection and clinical isolates enriched in liquid medium (F12) under microaerophilic conditions. These compounds were administrated as diluted aqueous solutions (0.5 mL) to the liquid culture media (25 mL), 120 mL glass flasks hermetically sealed and encapsulated with a cap containing a septum. The collection of the acids that were formed after the amide administration described in 1 was carried out after acidification of the medium with acid tartaric (mimetizing the stomach's pH) and exposing to the flask's vapor phase for 5 minutes at 37° C. a solid-phase microextraction fiber (SPME) coated with carbowax/divinilbenzene (65 μm thickness). The search in vapor phase for the carboxylic acids generated by the bacterium's aliphatic amidases activity on the amides administrated was carried out by means of gas chromatography using a capillary column of intermediate polarity. The detection was performed by mass spectrometry comprising 3 scan cycles with selective ion monitoring (SIM) the m/z=74 for the propionic acid and m/z=88 for butyric acid.

[1] = Amide incubated in flask comprising only the medium, without any bacteria addition, SPME GC-MS; format: physicochemical; conditions: 0.5 mL of 20 mM solution, 60 minutes incubation at 37° C.
Description: These compounds were administrated as diluted aqueous solutions (0.5 mL) to the liquid culture media (25 mL), 120 mL glass flasks hermetically sealed and encapsulated with a cap containing a septum.
The collection of the acids that were formed after the amide administration described in 1 was carried out after acidification of the medium with acid tartaric (mimetizing the stomach's pH) and exposing to the flask's vapor phase for 5 minutes at 37° C. a solid-phase microextraction fiber (SPME) coated with carbowax/divinilbenzene (65 μm thickness).
The search in vapor phase for the carboxylic acids generated by the bacterium's aliphatic amidases activity on the amides administrated was carried out by means of gas chromatography using a capillary column of intermediate polarity.
The detection was performed by mass spectrometry comprising 3 scan cycles with selective ion monitoring (SIM) the m/z=74 for the propionic acid and m/z=88 for butyric acid.

Row | Compound | chromatographic area corresponding to the butyric acid (H. pylori; 0.5 mL of 20 mM solution, medium enriched with H. pylori, 60 minutes incubation at 37° C., vapor phase SPME GC-MS m/z=88) | formation of the respective acid in the vapor phase (H. pylori) | chromatographic peak corresponding to butyric acid [1] | chromatographic area corresponding to the propanoic acid (H. pylori; 0.5 mL of 20 mM solution, medium enriched with H. pylori, 60 minutes incubation at 37° C., vapor phase SPME GC-MS m/z=74) | chromatographic peak corresponding to propanoic acid [1]
1 | CCCC(N)=O [butyramide] | 6.5×10^5 | the formation of the respective acids takes place | did not derive any chromatographic peak | – | –
2 | CCC(N)=O [propionamide] | – | the formation of the respective acids takes place | – | 7.0×10^5 | did not produce any chromatographic peak
